From patent publication US9676859B2, “In vitro generation of dendritic cells by exposure to an anti-CSF1-R antibody” (TRANSGENE SA, priority 2012, dated 2017)

What was measured:
[1] = system: differentiating macrophages; assay: Human macrophage differentiation assay: microscopical observation and cell counts of day-6 cultures (cytotoxicity); assay type: cell-based; details: for Microscopical observation of day-6 cultures (cytotoxicity), compared with untreated cells: all doses evaluated (mAbs 0.1, 1, 10 μg/ml, F(ab′)2 0.066, 0.66, 6.6 μg/ml), all donors
Excerpt: Cells were counted following a 6-day culture of monocyte, or precursors thereof, s with GM-CSF and CSF-1, in the presence or absence of anti-CD115 mAbs or F(ab′)2 or with GW2580. Controls included cultures treated with rituximab or rituximab F(ab′)2, or without any added compound.
Buffy coats were provided by the Etablissement Français du Sang (EFS, Strasbourg). Peripheral blood mononucleated cells (PBMC) were obtained by centrifugation on a ficoll gradient. Monocytes were purified by immunomagnetic cell sorting, using CD14-antibody-coated beads (Miltenyii). […] Monocytes were differentiated for 6 days in 48-well plates (3×10^5 cells/well) in RPMI-Glutamax™ medium supplemented with 10% heat inactivated fetal calf serum and 1% tri-antibiotic mixture (penicillin, streptomycin, neomycin). GM-CSF (10 ng/ml) was added in the cell culture medium from day 0 to day 3. H27K15, other antibodies or internal control GW2580 (LC Labs) were added at day 0. On day 3 post-isolation, monocytes were washed with PBS and further cultivated in medium supplemented with CSF-1 (10 ng/ml) and GM-CSF (2 ng/ml), in the presence or absence of antibodies or GW2580. On day 6, supernatants were collected and stored at −20° C. Cells were detached from the plastic and pools of triplicates were analyzed by IC/FC (immunocytochemistry/flow cytometry) for cell sizes and expression of FcγR and CD86. Cytokines and chemokines were quantified in the culture supernatants by multiplex (Bioplex, Bio-Rad) or by ELISA.
Three different doses of mab H27K15 or isotype control rituximab (0.1; 1 or 10 μg/ml) were added to the culture medium at the beginning of the culture and again 3 days later. F(ab′)2 generated from H27K15 or from rituximab were tested in parallel at equivalent molar concentrations.
Cell viability was analyzed at day 6 by counting 5 microscope fields in each well of the plate (one in the center of the well and four fields at mid-distance between the center and the side of the well).

IL-12p70 = IL-12p70 titration in day-6 macrophage culture supernatants; assay type: cell-based, human; details: day-6 supernatants, 3 blood donors, GW2580 1 μM; for IL-12p70 secretion: mAbs 1 μg/ml, detection limit 11 pg/ml
Protocol: (§1) IL-12p70 and IL-10 were titrated in the culture supernatants from day-6 macrophages differentiated in the presence of mAb H27K15 (1 μg/ml), GW2580 (1 μM) or their respective negative controls rituximab or no treatment. Left panel: IL-12p70 and IL-10 levels […] in macrophage cultures from 3 blood donors. Right: IL-12p70 […]/IL-10 […] ratios were calculated for each blood donor and each culture condition. In samples where IL-12p70 was undetectable (below the detection limit of 11 pg/m)l, its level was arbitrarily set at 1 pg/ml for the calculation of IL-12p70/IL-10 ratios.
(§2) Buffy coats were provided by the Etablissement Français du Sang (EFS, Strasbourg). Peripheral blood mononucleated cells (PBMC) were obtained by centrifugation on a ficoll gradient. Monocytes were purified by immunomagnetic cell sorting, using CD14-antibody-coated beads (Miltenyii). Enriched monocyte suspensions were more than 95% pure. Monocytes were differentiated for 6 days in 48-well plates (3×10^5 cells/well) in RPMI-Glutamax™ medium supplemented with 10% heat inactivated fetal calf serum and 1% tri-antibiotic mixture (penicillin, streptomycin, neomycin). GM-CSF (10 ng/ml) was added in the cell culture medium from day 0 to day 3. H27K15, other antibodies or internal control GW2580 (LC Labs) were added at day 0. On day 3 post-isolation, monocytes were washed with PBS and further cultivated in medium supplemented with CSF-1 (10 ng/ml) and GM-CSF (2 ng/ml), in the presence or absence of antibodies or GW2580. On day 6, supernatants were collected and stored at −20° C. Cells were detached from the plastic and pools of triplicates were analyzed by IC/FC (immunocytochemistry/flow cytometry) for cell sizes and expression of FcγR and CD86. Cytokines and chemokines were quantified in the culture supernatants by multiplex (Bioplex, Bio-Rad) or by ELISA.
IL-12p70 and IL-10 were titrated in day-6 culture supernatants.

MMP-9 = MMP-9 ELISA in day-6 supernatants of monocytes cultured with GM-CSF and CSF-1; assay type: cell-based, human; details: mAb 0.1, 1, 10 μg/ml, F(ab)′2 equimolar, effect in 2 out of 3 donors
Protocol: Monocytes isolated from 3 different blood donors were differentiated for 6 days in the presence of GM-CSF and CSF-1, with or without mAb H27K15, Rituximab or GW2580. MAb H27K15 or Rituximab (0.1, 1 or 10 μg/ml) or equimolar concentrations of F(ab)′2 derived from both mAbs were added to the cultures. MMP-9 was titrated by ELISA (R&D Systems) in day-6 culture supernatants.
CD14^+ monocytes from 3 different donors were allowed to differentiate in the presence of both GM-CSF and CSF-1, known to induce macrophage differentiation towards respectively the M1- and M2-types. MAb H27K15 or Rituximab (used as a negative control) were added to the cultures at 0.1, 1 or 10 μg/ml. Equimolar concentrations of F(ab)′2 derived from both mAbs were assayed in parallel. The tyrosine kinase inhibitor GW2580, previously shown to inhibit the CSF-1-dependent proliferation of human monocytes and the differentiation of murine macrophages in vitro was tested in the same assay. After 6 days of culture, MMP-9 concentrations were measured in the supernatants by ELISA (FIG. 6). […] Thus, mAb H27K15 is capable of decreasing MMP-9 secretion by differentiating M2 macrophages.

CD64 (FcγRI) = assay: Surface expression of CD64 on day-6 macrophages by IC/FC; assay type: cell-based, human; details: GW2580 1 μM vs no treatment
Protocol: Macrophages obtained following a 6-day culture of monocyte, or precursors thereof from 3 different blood donors with GM-CSF and CSF-1 were analyzed by IC/FC for surface expression of CD64. Upper panels: CD64 staining in cultures from donor 1 treated with monoclonal antibody H27K15 (left, bold line) or with GW2580 (right, bold line) or their respective negative controls rituximab (left, thin line) or no treatment (right, thin line). Lower panel: Medians of fluorescence intensities in macrophage cultures treated with test compounds at 10, 1 or 0.1 μg/ml* were compared with those in the corresponding negative controls: H27K15 vs rituximab, H27K15-derived F(ab′)2 vs rituximab-derived F(ab′)2, mAbs 2-4A5 or 9-4D2 vs rat IgG1, GW2580 vs no treatment. Percentages of reduction in CD64 expression were calculated as: 100−[100×Median fluorescence intensity with test compound/Median fluorescence intensity with control]. […]
(§3) Buffy coats were provided by the Etablissement Français du Sang (EFS, Strasbourg). […] Cells were detached from the plastic and pools of triplicates were analyzed by IC/FC (immunocytochemistry/flow cytometry) for cell sizes and expression of FcγR and CD86. Cytokines and chemokines were quantified in the culture supernatants by multiplex (Bioplex, Bio-Rad) or by ELISA. […]

[2] = system: CD163+ M2-type macrophages; assay: Flow cytometry of CD163-positive M2-type macrophages in day-6 cultures; assay type: cell-based, human; details: day-6 cultures with GM-CSF and CSF-1; 3 donors
Protocol: Cells obtained after 6-day culture with GM-CSF and CSF-1 were harvested and incubated for 20 min at 4° C. with PBS containing human IgG Fc fragments to saturate Fc receptors. Fluorochrome-conjugated mAbs (anti-CD14-PerCP-Cy5.5, anti-CD163-PE, anti-CD206-APC, anti-CD1a-FITC, BD Biosciences) were then incubated with each sample for 20 min at 4° C. FCM analysis was performed using a FACS LSR-II (BD biosciences) with the DIVA software. Data from 3 different blood donors are presented.
The surface expression of CD163 was analyzed by flow cytometry in day-6 macrophages derived from human monocytes cultured with GM-CSF and CSF-1. […] Culture with mAb H27K15 inhibited the differentiation of the CD163^+ macrophage population in all 3 donors tested. In the presence of 1 μg/ml H27K15, percentages of CD163-positive cells decreased from 2.5 to 4 folds compared with control cultures treated with rituximab.

IL-10 = IL-10 titration in day-6 macrophage culture supernatants; assay type: cell-based, human; details: day-6 supernatants; GW2580 1 μM
Protocol: as §1
as §3, with “Strasbourg). Peripheral blood mononucleated cells (PBMC) were obtained by centrifugation on a ficoll gradient. Monocytes were purified by immunomagnetic cell sorting, using CD14-antibody-coated beads (Miltenyii). Enriched monocyte suspensions were more than 95% pure.” for “Strasbourg).”

MCP-1/CCL2 = MCP-1/CCL2 titration in day-6 macrophage culture supernatants; assay type: cell-based, human; details: day-6 supernatants; H27K15 1 μg/ml, GW2580 1 μM
Protocol: MCP-1 and IL-6 were titrated in the culture supernatants from day-6 macrophages differentiated in the presence of mAb H27K15 (1 μg/ml), GW2580 (1 μM) or their respective negative controls rituximab or no treatment. Percentages of reduction in MCP-1 (upper panel) or in IL-6 production (lower panel) were calculated for the 3 blood donors as: 100−[100×cytokine concentration with test compound (pg/ml)/cytokine concentration with control (pg/ml)].
as §2, with “H27K15, other antibodies or internal control GW2580 (LC Labs) were added at day 0. On day 3 post-isolation, monocytes were washed with PBS and further cultivated in medium supplemented with CSF-1 (10 ng/ml) and GM-CSF (2 ng/ml), in the presence or absence of antibodies or GW2580. On day 6, supernatants were collected and stored at −20° C.” left out, “ELISA. […]” for “ELISA.”

CD86 = assay: Induction of CD86bright SSClow macrophage population by IC/FC; assay type: cell-based, human; details: day-6 macrophages; mAb 10, 1, 0.1 μg/ml, F(ab′)2 equimolar, GW2580 1 μM
Protocol: Upper panels: Dot plots showing CD86 staining (x-axis) and side scatter (SSC, y-axis) of macrophages from donor 3 differentiated for 6 days in the presence of H27K15 (left) or negative control rituximab (right). A gate was set on the CD86^bright SSC^low cell population induced by H27K15. Lower panel: Percentages of CD86^bright SSC^low cells with the test compounds at 10, 1 or 0.1 μg/ml* were compared with those in the corresponding negative controls: H27K15 vs rituximab, H27K15-derived F(ab′)2 vs rituximab-derived F(ab′)2, GW2580 vs no treatment. Percentages of increase in the CD86^bright SSC^low cell population were calculated as: 100×percentage of CD86^bright SSC^low cells with test compound/percentage of CD86^bright SSC^low cells with control. Shown are the mean percentages of increase in the CD86^bright SSC^low cell population from the 3 blood donors. *except for F(ab′)2: 6.6; 0.6; and 0.06 μg/ml.
as §3, with “Strasbourg). Peripheral blood mononucleated cells (PBMC) were obtained by centrifugation on a ficoll gradient.” for “Strasbourg).”

How did the “Microscopical observation of day-6 cultures (cytotoxicity), compared with untreated cells” value [1] turn out when “Rituximab F(ab′)2: F(ab′)2 produced by pepsine digestion of rituximab, negative control” was run?
Its value is “no obvious differences”.

How did the IL-12p70 secretion (IL-12p70) turn out when “Rituximab: human IgG1 isotype / negative control, obtained from Roche” was run?
Its IL-12p70 secretion is “did not produce any detectable IL-12p70”.

What about the “Microscopical observation of day-6 cultures (cytotoxicity), compared with untreated cells” value [1] of the same compound?
The value was “no obvious differences”.

How did the IL-12p70/IL-10 ratios (IL-12p70; H27K15 1 μg/ml, vs rituximab or no treatment) turn out when `COc1ccc(COc2ccc(Cc3cnc(N)nc3N)cc2OC)cc1` [GW2580, reference compound] was run?
The IL-12p70/IL-10 ratios was “increased”.

And the IL-12p70 secretion (IL-12p70)?
Its IL-12p70 secretion is “not detectable”.

And the MMP-9 production (MMP-9)?
Its MMP-9 production is “dose-dependent decrease”.

What about the “surface expression of CD64” value (CD64 (FcγRI)) of the same compound?
Its value is “drastically reduced”.

What about the “macrophage number remained at day 6 compared with untreated cultures” value ([1]; 1 μM) of the same compound?
The value was “approximately 70%”.

What about the “Microscopical observation of day-6 cultures (cytotoxicity)” value ([1]; 1 μM, all blood donors) of the same compound?
Its value is “relative cytotoxicity”.

What about the “differentiation of the CD163+ macrophage population” value [2] of the same compound?
The value was “same effect in only 2/3 donors”.

What about the IL-10 production (IL-10) of the same compound?
Its IL-10 production is “inhibition”.

And the “production of the chemokine MCP-1/CCL2” value (MCP-1/CCL2)?
Its value is “almost totally suppressed”.

What about the “Induction of CD86bright SSClow cell sub-population” value (CD86) of the same compound?
The value was “had appeared”.
